Source: ChEMBL document CHEMBL1201862, “PubChem BioAssay data set” (2004)
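Where inhibition never reached the appropriate level, the endpoint shown equals the highest concentration tested. Otherwise, values were interpolated linearly from a five-concentration, 48-hour dose response in 96-well plates. Here, GI50 denotes the concentration required for 50% inhibition of growth.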 Calls of active or inactive are those of the source. Cut-off read from the data, not from the text of the source: active = GI50 up to about 1.1 µM and inactive = higher.

Columns and labels:
Test in all cases: DTP human tumour cell line panel, 48 h
NCI/ADR-RES = test system: NCI/ADR-RES
786-0 = test system: 786-0
A549 = test system: A549
OVCAR-5 = test system: OVCAR-5
A498 = test system: A498
MDA-MB-231 = test system: MDA-MB-231
HT-29 = test system: HT-29
SN12C = test system: SN12C
SK-OV-3 = test system: SK-OV-3
MDA-MB-435 = test system: MDA-MB-435
RPMI-8226 = test system: RPMI-8226
M14 = test system: M14
Malme-3M = test system: Malme-3M
SK-MEL-5 = test system: SK-MEL-5
SK-MEL-2 = test system: SK-MEL-2
SNB-75 = test system: SNB-75
UACC-257 = test system: UACC-257
ACHN = test system: ACHN
NCI-H460 = test system: NCI-H460

SMILES	GI50 (NCI/ADR-RES)	GI50 (786-0)	GI50 (A549)	GI50 (OVCAR-5)	GI50 (A498)	GI50 (MDA-MB-231)	GI50 (HT-29)	GI50 (SN12C)	GI50 (SK-OV-3)	GI50 (MDA-MB-435)	GI50 (RPMI-8226)	GI50 (M14)	GI50 (Malme-3M)	GI50 (SK-MEL-5)	GI50 (SK-MEL-2)	GI50 (SNB-75)	GI50 (UACC-257)	GI50 (ACHN)	GI50 (NCI-H460)
O=C1C2=Cc3ccccc3OC2(O)Oc2ccccc21 (stereo not drawn)	> 100 µM (inactive)	> 100 µM (inactive)	> 100 µM (inactive)	> 100 µM (inactive)	> 100 µM (inactive)	> 100 µM (inactive)	> 100 µM (inactive)	> 100 µM (inactive)	> 100 µM (inactive)	> 100 µM (inactive)	> 100 µM (inactive)	> 100 µM (inactive)	> 100 µM (inactive)	> 100 µM (inactive)	> 100 µM (inactive)	52.2 µM (inactive)	> 100 µM (inactive)	–	–
c1ccc(CCN(Cc2nc3ccccc3[nH]2)Cc2nc3ccccc3[nH]2)cc1	5.93 µM (inactive)	15.9 µM (inactive)	17.1 µM (inactive)	23.8 µM (inactive)	13.6 µM (inactive)	13.2 µM (inactive)	17.3 µM (inactive)	14.6 µM (inactive)	24.4 µM (inactive)	12.4 µM (inactive)	3.05 µM (inactive)	12.9 µM (inactive)	21.6 µM (inactive)	3.86 µM (inactive)	18 µM (inactive)	16.4 µM (inactive)	14.5 µM (inactive)	4.79 µM (inactive)	10 µM (inactive)
COc1c(C)c2nc3ccccc3nc2c2c(O)ccnc12	> 100 µM (inactive)	16.9 µM (inactive)	37.1 µM (inactive)	> 100 µM (inactive)	43.3 µM (inactive)	> 100 µM (inactive)	69.7 µM (inactive)	> 100 µM (inactive)	75.7 µM (inactive)	> 100 µM (inactive)	> 100 µM (inactive)	> 100 µM (inactive)	> 100 µM (inactive)	35.6 µM (inactive)	> 100 µM (inactive)	7.13 µM (inactive)	> 100 µM (inactive)	30.1 µM (inactive)	53.5 µM (inactive)
CCC(C)C(NC(=O)C(CCCCN)NC(=O)C(NC(=O)C(CCC(N)=O)NC(=O)C(CCCNC(=N)N)NC(C)=O)C(C)CC)C(=O)NC(Cc1c[nH]c2ccccc12)C(=O)NC(Cc1ccccc1)C(=O)NC(CCC(N)=O)C(=O)NC(CC(N)=O)C(=O)NC(CCCNC(=N)N)C(=O)NC(CCCNC(=N)N)C(=O)NC(CCSC)C(=O)NC(CCCCN)C(=O)NC(Cc1c[nH]c2ccccc12)C(=O)NC(CCCCN)C(=O)NC(CCCCN)C(N)=O (stereo not drawn)	> 50 µM (inactive)	12 µM (inactive)	> 50 µM (inactive)	11.1 µM (inactive)	> 50 µM (inactive)	14.3 µM (inactive)	> 50 µM (inactive)	16.5 µM (inactive)	31.7 µM (inactive)	17.5 µM (inactive)	11.2 µM (inactive)	17.9 µM (inactive)	34.1 µM (inactive)	22.5 µM (inactive)	> 50 µM (inactive)	–	46.5 µM (inactive)	> 50 µM (inactive)	15.5 µM (inactive)
CCOC(=O)/C=C(/C(=O)OCC)n1ccc(=O)[nH]c1=O	15.5 µM (inactive)	3.36 µM (inactive)	18 µM (inactive)	5.93 µM (inactive)	20.6 µM (inactive)	10.8 µM (inactive)	10.9 µM (inactive)	7.78 µM (inactive)	18.7 µM (inactive)	10.8 µM (inactive)	2.67 µM (inactive)	3.83 µM (inactive)	1.9 µM (inactive)	15.3 µM (inactive)	15.8 µM (inactive)	14 µM (inactive)	12.6 µM (inactive)	3.99 µM (inactive)	14.6 µM (inactive)
COc1ccc(NC(S)=Nc2ccccc2)cc1	> 100 µM (inactive)	> 100 µM (inactive)	> 100 µM (inactive)	> 100 µM (inactive)	> 100 µM (inactive)	> 100 µM (inactive)	> 100 µM (inactive)	> 100 µM (inactive)	> 100 µM (inactive)	> 100 µM (inactive)	> 100 µM (inactive)	> 100 µM (inactive)	> 100 µM (inactive)	> 100 µM (inactive)	> 100 µM (inactive)	> 100 µM (inactive)	39.4 µM (inactive)	> 100 µM (inactive)	> 100 µM (inactive)
CC(C)(C)C1=CC(C)(n2[nH]c(=O)n(-c3ccccc3)c2=O)C=C(C(C)(C)C)C1=O	> 100 µM (inactive)	> 100 µM (inactive)	> 100 µM (inactive)	–	> 100 µM (inactive)	> 100 µM (inactive)	> 100 µM (inactive)	> 100 µM (inactive)	> 100 µM (inactive)	> 100 µM (inactive)	25.2 µM (inactive)	–	> 100 µM (inactive)	> 100 µM (inactive)	> 100 µM (inactive)	98.4 µM (inactive)	> 100 µM (inactive)	> 100 µM (inactive)	> 100 µM (inactive)
c1ccc(C(NCC2CCO2)(c2ccccc2)c2ccccc2)cc1 (stereo not drawn)	14.1 µM (inactive)	20 µM (inactive)	15.2 µM (inactive)	15.7 µM (inactive)	19.2 µM (inactive)	28.3 µM (inactive)	–	22.8 µM (inactive)	19.7 µM (inactive)	21.1 µM (inactive)	30.5 µM (inactive)	17.1 µM (inactive)	18.7 µM (inactive)	25.6 µM (inactive)	21.1 µM (inactive)	15.2 µM (inactive)	19.4 µM (inactive)	15.7 µM (inactive)	16.4 µM (inactive)
Cc1ccc(/N=N/c2c(O)c(C(=O)Nc3ccccc3)cc3ccccc23)c([N+](=O)[O-])c1	> 100 µM (inactive)	> 100 µM (inactive)	> 100 µM (inactive)	> 100 µM (inactive)	> 100 µM (inactive)	> 100 µM (inactive)	> 100 µM (inactive)	> 100 µM (inactive)	> 100 µM (inactive)	> 100 µM (inactive)	> 100 µM (inactive)	> 100 µM (inactive)	> 100 µM (inactive)	> 100 µM (inactive)	> 100 µM (inactive)	> 100 µM (inactive)	> 100 µM (inactive)	> 100 µM (inactive)	–
O=C(CSCC(=O)N/N=C\c1cccc([N+](=O)[O-])c1)N/N=C\c1cccc([N+](=O)[O-])c1	19.2 µM (inactive)	18.2 µM (inactive)	66.5 µM (inactive)	–	41.1 µM (inactive)	18.9 µM (inactive)	> 100 µM (inactive)	68.9 µM (inactive)	52.1 µM (inactive)	> 100 µM (inactive)	> 100 µM (inactive)	> 100 µM (inactive)	21 µM (inactive)	> 100 µM (inactive)	37.3 µM (inactive)	37.1 µM (inactive)	> 100 µM (inactive)	14 µM (inactive)	69.2 µM (inactive)
C=C(C)C(=O)O[C@H]1[C@H]2[C@H](OC(=O)[C@H]2C)[C@H](O)[C@@H](C)[C@@H]2C=CC(=O)[C@]21C	3.22 µM (inactive)	2.49 µM (inactive)	4.16 µM (inactive)	8.61 µM (inactive)	2.69 µM (inactive)	4.54 µM (inactive)	3.33 µM (inactive)	2.08 µM (inactive)	5.9 µM (inactive)	2.56 µM (inactive)	2.85 µM (inactive)	5.97 µM (inactive)	2.18 µM (inactive)	5.47 µM (inactive)	4.13 µM (inactive)	–	2.13 µM (inactive)	4.11 µM (inactive)	1.82 µM (inactive)
CC(=O)OCc1cc(CCC(=O)NCCNc2c3ccccc3nc3ccccc23)cc(COC(C)=O)c1O[Si](C)(C)C(C)(C)C	20.7 µM (inactive)	8.81 µM (inactive)	7.13 µM (inactive)	13.4 µM (inactive)	1.91 µM (inactive)	3.37 µM (inactive)	2.63 µM (inactive)	1.83 µM (inactive)	13.9 µM (inactive)	2.97 µM (inactive)	2.57 µM (inactive)	5.26 µM (inactive)	6.25 µM (inactive)	–	8.95 µM (inactive)	–	4.36 µM (inactive)	13.8 µM (inactive)	3.72 µM (inactive)
CCN(CC)CCc1c2c(nc3ccccc13)C(=O)c1cccnc1C2=O	4.28 µM (inactive)	2.07 µM (inactive)	2.88 µM (inactive)	4.63 µM (inactive)	1.97 µM (inactive)	1.83 µM (inactive)	3.31 µM (inactive)	1.1 µM (active)	1.09 µM (active)	1.93 µM (inactive)	1.88 µM (inactive)	0.454 µM (active)	2.02 µM (inactive)	0.209 µM (active)	2.94 µM (inactive)	5.65 µM (inactive)	1.38 µM (inactive)	0.719 µM (active)	–
O=c1cc(N2CCOCC2)n2c(ccc3ccccc32)n1	> 100 µM (inactive)	> 100 µM (inactive)	> 100 µM (inactive)	> 100 µM (inactive)	> 100 µM (inactive)	> 100 µM (inactive)	> 100 µM (inactive)	> 100 µM (inactive)	> 100 µM (inactive)	> 100 µM (inactive)	> 100 µM (inactive)	> 100 µM (inactive)	> 100 µM (inactive)	> 100 µM (inactive)	> 100 µM (inactive)	> 100 µM (inactive)	> 100 µM (inactive)	> 100 µM (inactive)	–
